“Also recorded” adds a separate entry of the source.
How the values were obtained:
[1] = tested on: patients with solid tumors; assay: Phase I dose escalation: DLTs, MTD, RP2D, adverse events; format: in vivo, human
From the text: The present study was an open label, multi-center Phase I/IIa safety trial of HuMax AXL ADC in a mixed population of patients with solid tumors known from the literature to overexpress Axl and where the use of systemic tubulin inhibitors is part of Standard of Care (SoC). The trial consisted of two parts; a dose escalation part (phase I, first-in-human (FIH)) and an expansion part (phase IIa).
The dose escalation part consists of two, staggered, arms for identification of the most optimal dosing regimen: • 1Q3W: Dosing once every 3 weeks • 3Q4W: Weekly dosing for 3 weeks followed by one treatment-free week.
The 1Q3W dose escalation evaluated HuMax-AXL-ADC at seven main dose levels: 0.3, 0.6, 1.0, 1.5, 2.0, 2.4 and 2.8 mg/kg, and 4 optional intermediate dose levels 1.25, 1.8, 2.2 and 2.6 mg/kg. Further escalation with steps of 0.4 mg/kg and de-escalation by 0.2 mg/kg was allowed, if the MTD had not been declared at a dose level up to 2.8 mg/kg.
In the 1Q3W dose escalation the patients received 1 infusion of HuMax-AXL-ADC every three weeks as according to FIG. 2.
The 3Q4W dose escalation was conducted as a standard 3 (+3) design which evaluatedHuMax-AXL-ADC at doses of (0.45), 0.6, 0.8, 1.0, 1.2 and 1.4 mg/kg. The escalation was allowed to continue to higher dose levels with increments up to 20%, if the 1.4 mg/kg was reached without significant safety concerns and it was considered safe to escalate above 1.4 mg/kg, the. The starting dose was expected to be 0.6 mg/kg (a dose level of 0.45 mg/kg could be added) and as an additional precaution, the independent Data Monitoring Committee (DMC) could recommend intermediate dose levels at any step during dose escalation.
In the 3Q4W dose escalation the patients received weekly dosing for 3 weeks followed by one treatment-free week according to FIG. 3. Patients were treated until disease progression or unacceptable toxicity was observed.
(§1) Primary Endpoints • Dose Limiting Toxicities (DLTs) • Adverse events (AEs): incidences of AEs, serious adverse events (SAEs), infusion-related AEs, grade 3 AEs, and AEs related to IMP during the trial.

[2] = Phase I dose escalation: PK parameters; format: in vivo, human; details: across doses/schedules
From the text: (§2) Secondary Endpoints • Safety laboratory parameters (hematology and biochemistry). • PK parameters (clearance, volume of distribution and area-under-the-concentration-time curve [AUC0-Clast and AUC0-∞], maximum concentration [Cmax], time of Cmax [Tmax], pre dose values, and half-life of HuMax-AXL-ADC and free toxin monomethyl auristatin E [MMAE]). • Immunogenicity of HuMax-AXL-ADC (anti-drug antibodies). • Anti-tumor activity measured by tumor shrinkage (based on computerized tomography [CT]-scan evaluations), as well as change in CA 125 in patients with ovarian cancer and change in prostate specific antigen (PSA) in patients with castration-resistant prostate cancer (CRPC). • Objective Response, Progression-Free Survival (PFS), Duration of Response (DoR) and Overall survival (OS). • Axl expression in the tumor biopsy.

[3] = tested on: patients with solid tumors; assay: Dose escalation: anti-tumor response (RECIST v1.1); format: in vivo, human; details: for patients with a partial response: 1Q3W arm
From the text: as §2
(§3) Response in solid tumor cancers was assessed in accordance with the RECIST criteria version 1.1^18 and for patients with ovarian cancer according to RECIST 1.1 in combination with CA 125 as defined by the Gynecological Cancer Intergroup^2.
In the dose escalation, response evaluation was performed by the investigator and sponsor. In the expansion, response evaluation was performed by the investigator and sponsor as well as a group of external medical experts. Each patient was assigned one of the following categories:
Patients in response categories 1 and 2 were considered responders and patients in response categories 4 and 5 were considered as failing to respond to treatment (disease progression). Patients in response categories 1, 2 and 3 were considered to be in disease control.

[4] = tested on: EGFR mutated NSCLC patients; assay: Expansion cohort 1: response (RECIST v1.1); format: in vivo, human
From the text: (§4) Patients had to meet all of the following inclusion criteria before they will be allowed to participate in the trial: • 1. For the dose escalation part: Patients with relapsed or refractory cancer of the ovary, cervix, endometrium, thyroid, non-small cell lung cancer (NSCLC), or melanoma (cutaneous, mucosal, acral or uveal melanoma) who have failed available standard therapy or who are not candidates for standard therapy, and for whom, in the opinion of the investigator, experimental therapy with HuMax-AXL-ADC may be beneficial. • For the expansion part: Patients with relapsed or refractory, advanced and/or metastatic cancer who were not candidates for standard therapy, and for whom, in the opinion of the investigator, experimental therapy with HuMax-AXL-ADC could be beneficial. […] Cohorts 1 and 2 included non-small cell lung cancer patients who had failed anticancer therapy as follows: • Expansion Cohort 1 (NSCLC patients with classical sensitizing EGFR mutations and/or other EGFR resistance mutations targeted by third generation TKIs (e.g. T790M for osimertinib)): • NSCLC patients after failure of up to 4 prior treatment regimens containing systemic therapy for metastatic disease • adjuvant and maintenance treatment is considered being part of one treatment regimen. • Documented progressive disease on or after last prior treatment • Last prior treatment to enrolment to GCT1021-01 should have been: • an EGFR inhibitor (e.g. Erlotinib, Osimertinib, etc.), • or a PD-1/PD-L1 inhibitor, • or a platinum-based doublet chemotherapy. • Expansion Cohort 2 (NSCLC patients without sensitizing EGFR mutations or ALK rearrangements) • NSCLC patients after failure of up to 4 prior treatment regimens containing systemic therapy for metastatic disease. • adjuvant and maintenance treatment is considered being part of one treatment regimen. • Documented progressive disease on or after last prior treatment. • Last prior treatment to enrolment to GCT1021-01 should have been • a PD-1/PD-L1 inhibitor. • or a chemotherapy (containing platinum, and/or taxane, and/or pemetrexed, and/or gemcitabine). • For the following conditions in Expansion Cohorts 1-2, the sponsor medical officer's approval of enrolment was needed: • if documented progression had not been on measurable disease (i.e. symptomatic progression). • if last prior treatment to enrolment was a combination therapy which contained an EGFR inhibitor or a PD-1/PD-L1 inhibitor. • if last prior treatment to enrolment contain chemotherapies other than platinum, and/or taxane, and/or pemetrexed, and/or gemcitabine (only applicable for NSCLC patients without sensitizing EGFR mutations or ALK rearrangements). • 2. […] In the dose escalation part all patients were required provide a tumor tissue sample (Formalin Fixed Paraffin Embedded blocks/slides) from archival tissue or fresh biopsy collected before Cycle 1, Visit 1, preferably derived from advanced disease stage. In the expansion part all patients were required to provide a fresh biopsy (aspirates were not acceptable) taken after failure/stop of last prior treatment. Furthermore the latest available tumor tissue sample had to be collected if available. • 4. Age 18 years. • 5. […]

[5] = tested on: NSCLC patients without sensitizing EGFR mutations or ALK rearrangements; assay: Expansion cohort 2: response (RECIST v1.1); format: in vivo, human
From the text: as §4, with “5. Have an acceptable renal function defined as: • Glomerular filtration rate (GFR)≥40 mL/min/1.73 m^2—e.g., according to the abbreviated Modification of Diet in Renal Disease (MDRD) equation: GFR=186×(SCr^−1.154)×(age^−0.203)(where SCr, the serum creatinine level, is expressed in mg/dL; multiply it by 0.742 if the patient was female; multiply it by 1.212, if the patient was African-American^3). • Not being on dialysis. • 6. Have an acceptable liver function defined as: • Alanine aminotransferase (ALT) and aspartate aminotransferase (AST)≤3 times the ULN; if liver tumor/metastases were present, then ≤5×ULN was allowed. • Bilirubin≤1.5×ULN, except in patients diagnosed with Gilbert's syndrome, direct bilirubin≤2×ULN. • 7.” for “5.”

[6] = tested on: non-small cell lung andenocarcinoma; assay: Subject examples: tumor assessments by scan (RECIST 1.1); format: in vivo, human
Procedure: as §3
Tumor shrinkage (based on CT-scan evaluations) was listed and summarized, per source (radiologist, central read).

[7] = tested on: non-small cell lung andenocarcinoma patients; assay: Subject examples: treatment emerging events; format: in vivo, human; details: listed as enapotamab vendotin
From the text: as §1

[8] = tested on: cynomolgus monkeys; assay: Toxicokinetic and toxicology data in cynomolgus monkeys; format: in vivo
[9] = 34 patients treated in expansion
[10] = 36 patients treated with 2.2 mg/kg (escalation+expansion)
[11] = of 34 patients treated in expansion
[12] = of 36 patients treated with 2.2 mg/kg (escalation+expansion)

Question: What does the source list for Enapotamab vedotin [HuMax-AXL-ADC]?
Answer: Maximum Tolerated Dose (MTD) ([1]; 1Q3W arm): 2.2 mg/kg; Recommended Phase 2 Dose (RP2D) ([1]; 1Q3W dosing regime): 2.2 mg/kg; Maximum Tolerated Dose (MTD) ([1]; 3Q4W arm): 1.0 mg/kg; number of DLTs ([1]; 47 patients enrolled): 6; Adverse Effects (any grade): constipation ([1]; % of 47 patients): 57%; Adverse Effects (any grade): decreased appetite ([1]; % of 47 patients): 43%; Adverse Effects (any grade): diarrhea ([1]; % of 47 patients): 47%; Adverse Effects (any grade): fatigue ([1]; % of 47 patients): 64%; Adverse Effects (any grade): nausea ([1]; % of 47 patients): 57%; Adverse Effects (any grade): vomiting ([1]; % of 47 patients): 45%; median elimination half-life [2]: 22 to 52.8 h; patients with a partial response ([3]; NSCLC, 2.2 mg/kg dose): 1; patients with a partial response ([3]; all tumor types): Three; patients with a partial response ([3]; ovarian, 1.5 and 2.4 mg/kg dose levels): 2; antitumor activity ([3]; single agent, pre-treated patients with solid tumors): encouraging preliminary antitumor activity; Disease Control Rate (DCR) ([4]; 18 patients treated): 39%; Objective Response Rate (unconfirmed) ([4]; 18 patients treated): 5.5%; patients with Best Overall Response (BoR) of unconfirmed PR ([4]; of 18 patients treated): 1; patients with BoR of PD ([4]; of 18 patients treated): 6; patients with BoR of SD ([4]; of 18 patients treated): 6; DCR [5, 9]: 47%; Objective Response Rate (ORR) (confirmed) [5, 9]: 11%; DCR [5, 10]: 50%; ORR (confirmed) [5, 10]: 13.8%; patients with BoR of PD [5, 11]: 7; patients with BoR of SD [5, 11]: 12; patients with BoR of confirmed PR [5, 11]: 4; patients with BoR of PD [5, 12]: 7; patients with BoR of SD [5, 12]: 13; patients with BoR of confirmed PR [5, 12]: 5; decrease in sum of diameters compared to screening ([6]; Subject 401, C2D15): 15%; sum of diameters of target lesions ([6]; Subject 401, C2D15, screening 26 mm): 22 mm; decrease in sum of diameters compared to screening ([6]; Subject 401, C4D15): 34.6%; sum of diameters of target lesions ([6]; Subject 401, C4D15, screening 26 mm): 17 mm; decrease in sum of diameters compared to screening ([6]; Subject 401, C6D15): 57.6%; sum of diameters of target lesions ([6]; Subject 401, C6D15, screening 26 mm): 11 mm; decrease in sum of diameters compared to screening ([6]; Subject 403, C2D15): 19.3%; sum of diameters of target lesions ([6]; Subject 403, C2D15, screening 88 mm): 71 mm; decrease in sum of diameters compared to screening ([6]; Subject 403, C4D15): 35.2%; decrease in sum of diameters compared to screening ([6]; Subject 403, C6D15): 36.4%; sum of diameters of target lesions ([6]; Subject 403, second post-baseline scan (C4D15), screening 88 mm): 57 mm; sum of diameters of target lesions ([6]; Subject 403, third post-baseline scan (C6D15), screening 88 mm): 56 mm; decrease in sum of diameters compared to screening ([6]; Subject 406, C2D15): 46.8%; sum of diameters of target lesions ([6]; Subject 406, C2D15, screening 32 mm): 17 mm; Treatment emerging events (grade, relatedness) ([7]; Subject 401): urinary tract infection (G2, unrelated); also recorded: creatinine kinase increase (fluctuating between G1 and G2, possibly related); also recorded: muscle cramps (G1, possibly related); also recorded: worsening of cough (G2, unrelated); also recorded: ALT increase and AST increase (both G1 and unrelated); also recorded: dysphonia and left leg weakness, both events reported as G1 and possibly related; Treatment emerging events (grade, relatedness) ([7]; Subject 403): two episodes of nausea (both Gland possibly related); also recorded: skin and subcutaneous tissue disorder (G1, not related); also recorded: constipation (G2, related); also recorded: two episodes of anorexia (G1, first episode unrelated, second episode possibly related); also recorded: gastroesophageal reflux (G1, not related); also recorded: alopecia (G1, related); also recorded: AST increase (G1, possibly related); recovery of neutrophils, thrombocytes and red blood cell parameters ([8]; cynomolgus monkey, in vivo): adequate recovery; safety profile ([8]; cynomolgus monkeys): acceptable safety profile
